The values below come from patent publication US3966747A, “9-Hydroxy-6,7-benzomorphans” (Bristol-Myers Company, priority 1974, dated 1976).

In assay [1] the test system is phenylquinone induced writhing. Kind of assay: Agonist activity: mouse phenylquinone writhing. Type of assay: in vivo. Conditions: for ED50: Mus musculus; for subcutaneous analgesic activity: in words. How it is done:
(§1) In vivo testing was conducted on the compounds designated herein as dl-XVIc, l-XVIc tartrate, d-XVIc tartrate, dl-XVIe, dl-XVId and dl-XVIb to determine their agonist and/or antagonist properties. The figures reported are the number of milligrams/ kilogram of body weight of compound that produced an agonist or antagonist effect in 50% of the mice and rats so tested (ED50).
^1 A 50 percent reduction in number of phenylquinone induced writhing
(Siegmund, E. A. et al., Proc. Soc. Biol. & Med. 95, 729; 1957).
(§2) ^6 All values are reported in terms of the free base even though
(§3) administered as an acid addition salt.
On the technique in general: An intraperitoneal irritant provokes the stretching counted in writhing tests.

For assay [2], the system named is analgesic effect induced by morphine. Kind of assay: animal or person. Type of assay: in vivo, Rat. The settings on record: for ED50: Rattus norvegicus.
Text: (§4) . The figures reported are the number of milligrams/ kilogram of body weight of compound that produced an agonist or antagonist effect in 50% of the mice and rats so tested (ED50).
mg./kg. sc.) as measured by the rat tail flick procedure (Harris, L. S.
and Pierson, A. K., J. Pharmacol. & Expt. Therap., 143, 141; 1964).
as §2, §3

The test system of assay [3] is righting reflex loss induced by oxymorphone. Description: animal or person. In kind it is in vivo, rats. The settings on record: for ED50: Rattus norvegicus.
Assay [4] has as its system Straub Tail induced by oxymorphone. Kind of assay: Antagonist activity: antagonism of Straub Tail induced by oxymorphone. Type of assay: in vivo, mice. The settings on record: oxymorphone 2 mg./kg. sc., as free base; for ED50: Mus musculus. Here is the method:
as §4
^2 Antagonism of Straub Tail induced by oxymorphone (2 mg./kg. sc.) i
as §2, §3

Assay [5] is described as follows: In vivo testing for agonist and/or antagonist properties (overall statement). Details: species or system mice and rats. The settings on record: in words. Here is the method:
as §1

[6] abbreviates: PO, 50 percent reduction in number of writhings, as free base, read-out: ED50, Agonist Activity, Mouse Phenylquinone Writhing, PO.
[7] abbreviates: SC, 50 percent reduction in number of writhings, as free base, read-out: ED50, Agonist Activity, Mouse Phenylquinone Writhing, SC.
The mark [8] stands for this setting: PO, morphine 15 mg./kg. sc., as free base, read-out: ED50, Antagonist Activity, Morphine Antagonism Rat Tail Flick, PO.
Where [9] appears, read: PO, oxymorphone 1.5 mg./kg. sc., as free base, read-out: ED50, Antagonist Activity, Oxymorphone Narcosis, PO.
Where [10] appears, read: PO, read-out: ED50, Antagonist Activity, Oxymorphone Straub Tail, PO.
The mark [11] stands for this setting: SC, read-out: ED50, Antagonist Activity, Oxymorphone Straub Tail, SC.
[12] abbreviates: SC, morphine 15 mg./kg. sc., as free base, read-out: ED50, Antagonist Activity, Morphine Antagonism Rat Tail Flick, SC.
The mark [13] stands for this setting: SC, oxymorphone 1.5 mg./kg. sc., as free base, read-out: ED50, Antagonist Activity, Oxymorphone Narcosis, SC.
Where [14] appears, read: SC, 50 percent reduction in number of writhings, as free base.

Read-outs that look alike come from different tables or passages of the source.

In general, ED50 refers to the dose that gives a 50% effect, or the effect in half of the subjects.

With `CC(C)=CCN1CCC2(C)c3cc(O)ccc3CC1C2C` (stereo not drawn) [Pentazocine], the median effective dose (ED50) came to 36 mg/kg in assay [1] (setting [6]); 4.9 mg/kg in assay [1] (setting [7]); 82.2 mg/kg in assay [2] (setting [8]); 90 mg/kg in assay [3] (setting [9]); 187 mg/kg in assay [4] (setting [10]); 12 mg/kg in assay [4] (setting [11]).

For the compound `C=CCN1CC[C@]23c4c5ccc(O)c4O[C@H]2[C@@H](O)C=C[C@H]3[C@H]1C5` [Nalorphine], the ED50 came to 15 mg/kg in assay [1] (setting [6]); 0.77 mg/kg in assay [1] (setting [7]); 22.1 mg/kg in assay [2] (setting [8]); 0.38 mg/kg in assay [2] (setting [12]); 5.4 mg/kg in assay [3] (setting [9]); 0.58 mg/kg in assay [3] (setting [13]). Besides, the ED50 in assay [4] (setting [10]) was above 64 mg/kg.

As for `C=CCC12CCN(CC3CCC3)C(Cc3ccc(O)cc31)C2(C)O.O=C(O)C(O)C(O)C(=O)O` (stereo not drawn) [d-XVIc, d-2',9β-Dihydroxy-9α-methyl-5-allyl-2-cyclobutylmethyl-6,7-benzomorphan tartrate], the “ED50, Agonist Activity, Mouse Phenylquinone Writhing, SC” value (“ED50, Agonist Activity … SC” below) in assay [1] (setting [14]) was above 40 mg/kg. Moreover, the “ED50, Antagonist Activity, Oxymorphone Straub Tail, SC” value (“ED50 … Oxymorphone Straub Tail, SC” for short) in assay [4] (SC) is listed as ~ 40 mg./kg.

As for `C[C@H]1[C@H]2Cc3ccc(O)cc3[C@]1(C)CCN2CC1CC1` [Cyclazocine], the ED50 was found to be 4 mg/kg in assay [1] (setting [6]); 0.047 mg/kg in assay [1] (setting [7]); 3.7 mg/kg in assay [2] (setting [8]); 0.04 mg/kg in assay [2] (setting [12]); 2.7 mg/kg in assay [3] (setting [9]); 0.12 mg/kg in assay [3] (setting [13]). Moreover, the ED50 in assay [4] (setting [10]) came out at 24 mg/kg; in assay [4] (setting [11]), 0.81 mg/kg.

As for `CCC[C@]12CCN(CC3CC3)[C@H](Cc3ccc(O)cc31)[C@@]2(C)O` (relative stereo) [dl-XVIe, 2',9β-Dihydroxy-2-cyclopropylmethyl-5-propyl-9α-methyl-6,7benzomorphan], the ED50 is above 40 mg/kg in assay [1] (setting [7]); 6 mg/kg in assay [2] (setting [8]); 0.03 mg/kg in assay [2] (setting [12]); 0.08 mg/kg in assay [3] (setting [13]); 0.11 mg/kg in assay [4] (setting [11]). Besides, in assay [1], the subcutaneous analgesic activity entry is recorded as “weak subcutaneous analgesic activity”. In addition, the parenteral antagonist activity result in assay [5] is recorded as “relatively potent parenteral antagonists”.

Consider “l- 2',9β-Dihydroxy-9α-methyl-5-allyl-2-cyclobutyl-6,7 -benzomorphan tartrate [l-XVIc]”, for which, in assay [1] (PO, 50 percent reduction in number of writhings, as free base), the “ED50, Agonist Activity, Mouse Phenylquinone Writhing, PO” value is 8 mg/kg. Further, the “ED50, Agonist Activity … SC” value in assay [1] (setting [14]) is 0.055 mg/kg. Moreover, in assay [2] (rat, in vivo, po), the “ED50, Antagonist Activity, Morphine Antagonism Rat Tail Flick, PO” value was found to be 14.1 mg/kg. In assay [2] (rat, in vivo, sc), the “ED50, Antagonist Activity, Morphine Antagonism Rat Tail Flick, SC” value was 0.08 mg/kg. Besides, the “ED50, Antagonist Activity, Oxymorphone Narcosis, SC” value in assay [3] (rat, in vivo, sc) came to 0.05 mg/kg. The “agonist and antagonist activity upon parenteral administration” value in assay [5] was “potent agonist and antagonist activity”. For the same compound, the “ED50 … Oxymorphone Straub Tail, SC” value in assay [4] (SC) is 0.43 mg/kg.

Take `C=CCN1CC[C@]23c4c5ccc(O)c4O[C@H]2C(=O)CC[C@@]3(O)[C@H]1C5` [Naloxone]: the ED50 in assay [1] (setting [7]) was 40 mg/kg; in assay [2] (po, read-out: ED50, Antagonist Activity, Morphine Antagonism Rat Tail Flick, PO) it was 2.7 mg/kg; in assay [2] (sc, read-out: ED50, Antagonist Activity, Morphine Antagonism Rat Tail Flick, SC) it was 0.01 mg/kg; in assay [3] (po, read-out: ED50, Antagonist Activity, Oxymorphone Narcosis, PO), 0.95 mg/kg; in assay [3] (sc, read-out: ED50, Antagonist Activity, Oxymorphone Narcosis, SC), 0.02 mg/kg; in assay [4] (setting [10]), 13.1 mg/kg. The median effective dose (ED50) in assay [4] (setting [11]) came to 0.17 mg/kg.

`C=CC[C@]12CCN(CC3CC3)[C@H](Cc3ccc(O)cc31)[C@@]2(C)O` (relative stereo) [dl-XVIb, 2',9β-Dihydroxy-2-cyclopropylmethyl-5-allyl-9α-methyl-6,7-benzomorphan]: the ED50 in assay [1] (setting [7]) was above 40 mg/kg; in assay [2] (setting [12]) it was 0.018 mg/kg; in assay [4] (setting [10]), 16 mg/kg; in assay [4] (setting [11]), 0.12 mg/kg. Further, the subcutaneous analgesic activity result in assay [1] is “weak subcutaneous analgesic activity”. Also, the parenteral antagonist activity entry in assay [5] is on record as “relatively potent parenteral antagonists”.

Regarding `C#CCN1CC[C@@]2(CC=C)c3cc(O)ccc3C[C@@H]1[C@@]2(C)O` (relative stereo) [dl-XVId, 2',9β-Dihydroxy-2-propargyl-5-allyl-9α-methyl-6,7-benzomorphan], the ED50 was above 40 mg/kg in assay [1] (setting [7]), 0.14 mg/kg in assay [2] (setting [12]) and 1.41 mg/kg in assay [4] (setting [11]). Further, the subcutaneous analgesic activity result in assay [1] is reported as “weak subcutaneous analgesic activity”. Besides, the parenteral antagonist activity result in assay [5] is “relatively potent parenteral antagonists”.

Consider `C=CCN1CC[C@]23CCCC[C@H]2[C@H]1Cc1ccc(O)cc13` [Levallorphan], for which the ED50 in assay [2] (setting [8]) is 12.6 mg/kg; in assay [2] (setting [12]), 0.086 mg/kg; in assay [3] (setting [9]) it was 5.4 mg/kg; in assay [3] (setting [13]), 0.32 mg/kg; in assay [4] (setting [10]) it was 46 mg/kg; in assay [4] (setting [11]) it was 0.29 mg/kg.

As for “l-2', 9β-Dihydroxy-9α-methyl-5-propyl-2-cyclobutyl-6,7 -benzomorphan HCl [l-XVIr]”, in assay [1] (setting [14]), the “ED50, Agonist Activity … SC” value was 0.18 mg/kg. Besides, the “ED50, Antagonist Activity, Morphine Antagonism Rat Tail Flick, SC” value in assay [2] (SC, morphine 15 mg./kg. sc., as free base) is 0.10 mg/kg. Besides, in assay [4] (SC), the “ED50 … Oxymorphone Straub Tail, SC” value came out at 1.17 mg/kg.

On to `C=CC[C@]12CCN(CC3CCC3)[C@H](Cc3ccc(O)cc31)[C@@]2(C)O` (relative stereo) [dl-XVIc, 2',9β-Dihydroxy-2-cyclobutylmethyl-5-allyl-9α-methyl-6,7-benzomorphan], for which the ED50 in assay [1] (setting [7]) was found to be 0.23 mg/kg; in assay [2] (setting [12]), 0.42 mg/kg; in assay [3] (setting [13]), 0.3 mg/kg; in assay [4] (setting [11]), 0.72 mg/kg. The “agonist and antagonist activity upon parenteral administration” value in assay [5] is “potent agonist and antagonist activity”.
